pIC50: −log10 of the molar value.
What was measured:
[1] = tested on: STAT5 (Tyr694) phosphorylation in SET-2 cells; test: STAT5 (Tyr694) phosphorylation cell based assay; conditions: Homo sapiens, pSTAT5, 2 hours, read-out: SET2 IC50
Outline: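 SET-2 cells (7×10^6 cells/mL, RPMI 10% FBS, 0.5% DMSO) treated with compound 2 h at 37 °C, then lysed 90 min at RT. Phospho-STAT5 (Tyr694) detected by HTRF sandwich antibodies after 24 h at RT, 665/620 ratio. IC50 from percent control activity versus log concentration, DMSO and high-concentration control compound as references.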

[2] = In vitro intrinsic clearance; type: in vitro ADME; conditions: human liver microsomes, 1 μM
Outline: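 Compound at 1 μM was incubated at 37° C with human liver microsomes (0.5 mg protein/mL) and 2 mM NADPH in pH 7.4 phosphate buffer, sampled at 0–30 min and analysed by LC-MS/MS. CLint was derived from t1/2 of depletion and scaled to human hepatic clearance with the well-stirred model (Q 20 mL·min^−1·kg^−1).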

KIT [3] = biological target: KIT (Homo sapiens, UniProt P10721); test: KIT enzymatic assay; type: biochemical; conditions: 1 mM ATP
Outline: (§1)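 0.12 nM KIT with 1 mM ATP and 500 nM biotinylated TK substrate in 50 mM HEPES pH 7.0, 10 mM MgCl2, 1 mM DTT, 0.1 mM orthovanadate, 0.5% DMSO; 60 min at room temperature. TR-FRET 665/620 nm ratio; IC50 fitted from percent control activity versus log concentration.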

KIT [4] = test: KIT enzymatic assay; type: biochemical
Outline: as §1

TRKA [5] = test: TRKA enzymatic assay; type: biochemical
Outline: (§2)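 The reaction mix held 0.58 nM TRKA, 1 mM ATP and 500 nM biotinylated TK substrate in 50 mM HEPES pH 7.0 with 10 mM MgCl2, 1 mM DTT and 0.5% DMSO, run 60 min at room temperature. Product was detected by TR-FRET as the 665/620 nm ratio. IC50 was fitted from % control activity versus log concentration, using DMSO-only and no-ATP wells as controls.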

TRKA [6] = biological target: TRKA (Homo sapiens, UniProt P04629); test: TRKA enzymatic assay; type: biochemical; conditions: 1 mM ATP
Outline: as §2

Chain of KIT (Homo sapiens, UniProt P10721) (P10721 26-976, species assumed): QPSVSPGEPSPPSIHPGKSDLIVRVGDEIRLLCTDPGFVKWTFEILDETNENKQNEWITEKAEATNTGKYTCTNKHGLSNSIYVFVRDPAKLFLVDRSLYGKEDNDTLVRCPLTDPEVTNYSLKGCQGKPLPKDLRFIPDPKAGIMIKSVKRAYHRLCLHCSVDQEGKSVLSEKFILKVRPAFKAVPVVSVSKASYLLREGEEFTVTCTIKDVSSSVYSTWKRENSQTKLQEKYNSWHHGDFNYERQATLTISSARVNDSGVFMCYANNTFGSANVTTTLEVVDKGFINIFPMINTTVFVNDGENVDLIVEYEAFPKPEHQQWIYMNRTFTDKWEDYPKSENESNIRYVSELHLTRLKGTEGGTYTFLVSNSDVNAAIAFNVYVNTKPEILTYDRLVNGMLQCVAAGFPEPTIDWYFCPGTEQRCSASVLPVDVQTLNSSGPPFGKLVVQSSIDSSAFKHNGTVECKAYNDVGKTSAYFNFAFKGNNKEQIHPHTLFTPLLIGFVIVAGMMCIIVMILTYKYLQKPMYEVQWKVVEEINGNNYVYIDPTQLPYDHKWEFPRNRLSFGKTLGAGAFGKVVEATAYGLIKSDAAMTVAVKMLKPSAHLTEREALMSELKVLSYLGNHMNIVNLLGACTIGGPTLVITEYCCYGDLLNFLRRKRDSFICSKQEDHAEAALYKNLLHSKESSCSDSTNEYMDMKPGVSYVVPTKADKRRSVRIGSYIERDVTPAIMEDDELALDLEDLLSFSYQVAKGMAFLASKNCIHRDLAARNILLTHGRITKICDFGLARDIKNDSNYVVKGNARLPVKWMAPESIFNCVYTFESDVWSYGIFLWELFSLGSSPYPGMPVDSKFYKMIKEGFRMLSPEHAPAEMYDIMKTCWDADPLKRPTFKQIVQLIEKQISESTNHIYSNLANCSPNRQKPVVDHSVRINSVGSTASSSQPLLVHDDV
Chain of TRKA (Homo sapiens, UniProt P04629) (P04629 33-796, species assumed): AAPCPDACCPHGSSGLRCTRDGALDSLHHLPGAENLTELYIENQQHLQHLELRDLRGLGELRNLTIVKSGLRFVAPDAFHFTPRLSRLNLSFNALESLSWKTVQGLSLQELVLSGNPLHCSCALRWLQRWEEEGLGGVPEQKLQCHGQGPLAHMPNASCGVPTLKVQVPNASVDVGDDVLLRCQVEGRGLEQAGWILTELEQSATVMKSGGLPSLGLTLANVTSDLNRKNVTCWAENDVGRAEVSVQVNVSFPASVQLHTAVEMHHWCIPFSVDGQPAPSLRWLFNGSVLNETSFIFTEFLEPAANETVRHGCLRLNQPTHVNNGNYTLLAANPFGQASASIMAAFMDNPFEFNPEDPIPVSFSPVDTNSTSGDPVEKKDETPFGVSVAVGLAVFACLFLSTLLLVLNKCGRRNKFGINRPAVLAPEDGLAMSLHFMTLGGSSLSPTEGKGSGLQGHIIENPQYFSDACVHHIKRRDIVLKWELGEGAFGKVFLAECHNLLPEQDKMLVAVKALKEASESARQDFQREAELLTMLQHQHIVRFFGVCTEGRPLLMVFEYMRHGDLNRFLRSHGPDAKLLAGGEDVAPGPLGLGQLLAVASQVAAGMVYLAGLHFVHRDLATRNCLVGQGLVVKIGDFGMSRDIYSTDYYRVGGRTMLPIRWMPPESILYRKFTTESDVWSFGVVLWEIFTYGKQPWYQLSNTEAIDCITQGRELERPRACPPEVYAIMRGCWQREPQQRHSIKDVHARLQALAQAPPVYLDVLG

SMILES | pIC50 [1] | h-IntCL [2] | pIC50 (KIT [3]) | Selectivity KIT/JH2 V617F (KIT [4]) | Selectivity TRKA/JH2 V617F (TRKA [5]) | pIC50 (TRKA [6])
[2H]C([2H])([2H])n1cc(-c2[nH]c3ncc4c(c3c2-c2ccc3c(cnn3CC(F)F)c2)n([C@@H]2CC[C@@H](NC(=O)OC)C2)c(=O)n4C([2H])([2H])[2H])c(F)n1 [Example 14, Methyl ((1R,3R)-3-(8-(1-(2,2-difluoroethyl)-1H-indazol-5-yl)-7-(3-fluoro-1-(methyl-d3)-1H-pyrazol-4-yl)-3-(methyl-d3)-2-oxo-3,6-dihydroimidazo[4,5-d]pyrrolo[2,3-b]pyridin-1(2H)-yl)cyclopentyl)carbamate] | ≥ 6.52 | ‡ ‡ (h-IntCL of ≥0.7 L/h/kg to ≤1 L/h/kg) | 5.90 to 6.60 | ***** (selectivity of >5000-fold to ≤12500-fold) | ****** (selectivity of >12500-fold) | < 5.60
[2H]C([2H])([2H])n1ncc2cc(-c3c(-c4cn(C([2H])([2H])C([2H])([2H])[2H])nc4F)[nH]c4ncc5c(c34)n([C@@H]3CC[C@@H](NC(=O)OC)C3)c(=O)n5C([2H])([2H])[2H])ccc21 [Example 15, Methyl ((1R,3R)-3-(7-(1-(ethyl-d5)-3-fluoro-1H-pyrazol-4-yl)-3-(methyl-d3)-8-(1-(methyl-d3)-1H-indazol-5-yl)-2-oxo-3,6-dihydroimidazo[4,5-d]pyrrolo[2,3-b]pyridin-1(2H)-yl)cyclopentyl)carbamate] | ≥ 6.52 | ‡ ‡ (h-IntCL of ≥0.7 L/h/kg to ≤1 L/h/kg) | 5.90 to 6.60 | **** (selectivity of >1750-fold to ≤5000-fold) | ****** (selectivity of >12500-fold) | 5.60 to 5.90
[2H]C([2H])([2H])n1cc(-c2[nH]c3ncc4c(c3c2-c2ccc3c(cnn3C(C)C)c2)n([C@@H]2CC[C@@H](NC(=O)OC)C2)c(=O)n4C)c(F)n1 [Example 16, Methyl ((1R,3R)-3-(7-(3-fluoro-1-(methyl-d3)-1H-pyrazol-4-yl)-8-(1-isopropyl-1H-indazol-5-yl)-3-methyl-2-oxo-3,6-dihydroimidazo[4,5-d]pyrrolo[2,3-b]pyridin-1(2H)-yl)cyclopentyl)carbamate] | ≥ 6.52 | ‡ ‡ (h-IntCL of ≥0.7 L/h/kg to ≤1 L/h/kg) | 5.60 to 5.90 | ****** (selectivity of >12500-fold) | ****** (selectivity of >12500-fold) | < 5.60
[2H]C([2H])([2H])n1cc(-c2[nH]c3ncc4c(c3c2-c2cc(F)c3c(cnn3C([2H])([2H])[2H])c2)n([C@@H]2CC[C@@H](NC(=O)OC)C2)c(=O)n4C([2H])([2H])[2H])c(F)n1 [Example 17, Methyl ((1R,3R)-3-(8-(7-fluoro-1-(methyl-d3)-1H-indazol-5-yl)-7-(3-fluoro-1-(methyl-d3)-1H-pyrazol-4-yl)-3-(methyl-d3)-2-oxo-3,6-dihydroimidazo[4,5-d]pyrrolo[2,3-b]pyridin-1(2H)-yl)cyclopentyl)carbamate] | ≥ 6.52 | ‡ ‡ (h-IntCL of ≥0.7 L/h/kg to ≤1 L/h/kg) | 5.60 to 5.90 | ****** (selectivity of >12500-fold) | ****** (selectivity of >12500-fold) | < 5.60
[2H]C([2H])([2H])n1cc(-c2[nH]c3ncc4c(c3c2-c2ccc3c(cnn3CC(F)F)c2)n([C@@H]2CC[C@@H](NC(=O)OC)C2)c(=O)n4C)c(F)n1 [Example 18, Methyl ((1R,3R)-3-(8-(1-(2,2-difluoroethyl)-1H-indazol-5-yl)-7-(3-fluoro-1-(methyl-d3)-1H-pyrazol-4-yl)-3-methyl-2-oxo-3,6-dihydroimidazo[4,5-d]pyrrolo[2,3-b]pyridin-1(2H)-yl)cyclopentyl)carbamate] | ≥ 6.52 | ‡ ‡ (h-IntCL of ≥0.7 L/h/kg to ≤1 L/h/kg) | 5.60 to 5.90 | ****** (selectivity of >12500-fold) | ****** (selectivity of >12500-fold) | < 5.60
[2H]C([2H])([2H])n1c(=O)n([C@@H]2CC[C@@H](NC(=O)OC)C2)c2c3c(-c4ccc5c(c4)COC5(C)C)c(-c4cn(C([2H])([2H])C([2H])([2H])[2H])nc4F)[nH]c3ncc21 [Example 19, Methyl ((1R,3R)-3-(8-(1,1-dimethyl-1,3-dihydroisobenzofuran-5-yl)-7-(1-(ethyl-d5)-3-fluoro-1H-pyrazol-4-yl)-3-(methyl-d3)-2-oxo-3,6-dihydroimidazo[4,5-d]pyrrolo[2,3-b]pyridin-1(2H)-yl)cyclopentyl)carbamate] | ≥ 6.52 | ‡ ‡ (h-IntCL of ≥0.7 L/h/kg to ≤1 L/h/kg) | < 5.60 | ****** (selectivity of >12500-fold) | ****** (selectivity of >12500-fold) | < 5.60
[2H]C([2H])([2H])n1c(=O)n([C@@H]2CC[C@@H](NC(=O)OC)C2)c2c3c(-c4ccc5c(c4)COC5(C)C)c(-c4cn(CC)nc4F)[nH]c3ncc21 [Example 20, Methyl ((1R,3R)-3-(8-(1,1-dimethyl-1,3-dihydroisobenzofuran-5-yl)-7-(1-ethyl-3-fluoro-1H-pyrazol-4-yl)-3-(methyl-d3)-2-oxo-3,6-dihydroimidazo[4,5-d]pyrrolo[2,3-b]pyridin-1(2H)-yl)cyclopentyl)carbamate] | ≥ 6.52 | ‡ ‡ (h-IntCL of ≥0.7 L/h/kg to ≤1 L/h/kg) | < 5.60 | ****** (selectivity of >12500-fold) | ****** (selectivity of >12500-fold) | < 5.60
[2H]C([2H])([2H])n1ncc2cc(-c3c(-c4cn(C([2H])(C([2H])([2H])[2H])C([2H])([2H])[2H])nc4F)[nH]c4ncc5c(c34)n([C@@H]3CC[C@@H](NC(=O)OC)C3)c(=O)n5C([2H])([2H])[2H])ccc21 [Example 21, Methyl ((1R,3R)-3-(7-(3-fluoro-1-(propan-2-yl-d7)-1H-pyrazol-4-yl)-3-(methyl-d3)-8-(1-(methyl-d3)-1H-indazol-5-yl)-2-oxo-3,6-dihydroimidazo[4,5-d]pyrrolo[2,3-b]pyridin-1(2H)-yl)cyclopentyl)carbamate] | ≥ 6.52 | ‡ ‡ (h-IntCL of ≥0.7 L/h/kg to ≤1 L/h/kg) | 5.60 to 5.90 | ****** (selectivity of >12500-fold) | ****** (selectivity of >12500-fold) | < 5.60
